Laboratory results reported in paper PMC10539439 (Pharmacological Reports, 2023).
pEC50: −log10 of the molar value. “And” between values parts separate entries of the source, which are not always exact repeats. Identical values can stand only once.

Legend:
α2B-adrenoceptor = target: T1, α2B-adrenoceptor (Homo sapiens, UniProt P18089); test: Intrinsic activity, AequoScreen aequorin calcium mobilization; assay type: cell-based
T1 sequence (P18089 1-450): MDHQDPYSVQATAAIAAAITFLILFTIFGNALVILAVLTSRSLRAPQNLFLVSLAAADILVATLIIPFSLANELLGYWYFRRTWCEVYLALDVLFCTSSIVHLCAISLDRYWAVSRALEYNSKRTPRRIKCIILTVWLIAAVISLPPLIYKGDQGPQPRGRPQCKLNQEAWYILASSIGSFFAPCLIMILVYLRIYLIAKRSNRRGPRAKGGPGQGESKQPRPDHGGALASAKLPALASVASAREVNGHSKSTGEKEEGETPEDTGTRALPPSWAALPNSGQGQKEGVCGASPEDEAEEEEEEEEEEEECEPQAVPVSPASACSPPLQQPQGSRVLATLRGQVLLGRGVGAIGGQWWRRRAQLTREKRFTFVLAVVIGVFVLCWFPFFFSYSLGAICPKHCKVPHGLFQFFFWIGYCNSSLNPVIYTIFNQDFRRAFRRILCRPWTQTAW
Description: The intrinsic activity at α2B-adrenoceptor was evaluated by luminescence detection of calcium mobilization using the recombinant expressed jellyfish photoprotein, aequorin.
Measurements were performed with the α2B-adrenergic AequoScreen cell line (PekinElmer cat. no. ES-031-AF). Cell density, in 96-well format measurements, was 5000 cells per well. […] Compound concentration series (50 μL/well) were diluted in 0.1% BSA (Intergen, cat. no. 3440–75) containing assay buffer (D-MEM/F-12, Invitrogen cat. no. 11039) and prepared in white ½ Area Plate—96-well microplates (PerkinElmer, cat. no. 6005560). The cell suspension was dispersed on the ligands using POLARstar optima reader injectors (BMG Labtech, Germany).
The concentration and dilution series having four replicates were prepared as instructed in the AequoScreen Starter Kit Manual. Cells were injected into wells with standard agonist or tested compounds using the POLARstar optima reader (BMG Labtech, Germany), and emitted light was recorded for 20 s. For the antagonist assay, cells were injected (50 μL) into the assay plate with antagonists (50 μL).

[1] = Body weight of non-obese rats fed a standard diet; assay type: in vivo, rat; details: for body weight of rat in g in particular day: standard diet, 5 mg/kg
Description: Male Wistar rats (190–220 g) were housed in pairs. The control group (standard diet + vehicle) received vehicle (water, ip), while the test group (standard diet + 4-OH-Guanabenz) was injected (ip) with 4-OH-Guanabenz at a dose of 5 mg/kg b.w. dissolved in water. Body weights were measured daily immediately prior to drug administration.

[2] = Core body temperature of obese rats (implanted logger); assay type: in vivo, rat; details: for temperature after administration: hight-fat diet, 5mg/kg, individual rats 1-6
Description: Animals with induced obesity (two more groups) were subcutaneously implanted with a DST micro-HRT heart rate logger (Star-Oddi, Island), which simultaneously measured long-term core temperature. Under general anesthesia (thiopental, 70 mg/kg, ip), the loggers were inserted under the skin in the groin area and sutured with a surgical thread. Forty-eight hours later, the baseline temperature was measured, and at 9:30 AM, 4-OH-Guanabenz was administered ip at a dose of 5 mg/kg b.w. The first measurement was recorded 30 min after the administration of the test compound, and then, the temperature was recorded every hour. After 24 h, the loggers were removed, the temperature data were read, and Mercury software (Star-Oddi Mercury Data Logger PC Software, Iceland) was used to collect and analyze the information obtained. Using this technology, measurements are made without the direct intervention of the researcher; therefore, there is no disturbance in the readings evoked by stress in the animals.

[3] = 5 mg/kg b.w., i.p.; cited from earlier work

Structure (SMILES): Cl.N=C(N)NN=Cc1c(Cl)cc(O)cc1Cl [4-OH-Guanabenz, 2-[(2,6-Dichloro-4-hydroxyphenyl)methylene]hydrazinecarboximidamide Hydrochloride]
- pEC50 (α2B-adrenoceptor): 6.48
- Intrinsic activity at α2B-adrenoceptor (in words) (α2B-adrenoceptor): antagonist activity
- effect on body weight (in words) ([1]; rats fed standard diet, 5 mg/kg b.w. ip): No significant effects on body weight
- body weight of rat in g in particular day ([1]; day 1, individual rats): 206 g and 214 g and 229 g and 239 g
- body weight of rat in g in particular day ([1]; day 2, individual rats): 206 g and 217 g and 231 g and 242 g
- body weight of rat in g in particular day ([1]; day 3, individual rats): 203 g and 214 g and 223 g and 240 g
- body weight of rat in g in particular day ([1]; day 4, individual rats): 207 g and 216 g and 230 g and 238 g
- body weight of rat in g in particular day ([1]; day 5, individual rats): 210 g and 220 g and 230 g and 241 g
- body weight of rat in g in particular day ([1]; day 6, individual rats): 212 g and 222 g and 230 g and 241 g
- body weight of rat in g in particular day ([1]; day 7, individual rats): 212 g and 218 g and 231 g and 244 g
- body weight of rat in g in particular day ([1]; day 8, individual rats): 214 g and 212 g and 227 g and 240 g
- body weight of rat in g in particular day ([1]; day 9, individual rats): 210 g (2×) and 222 g and 237 g
- body weight of rat in g in particular day ([1]; day 10, individual rats): 212 g and 215 g and 225 g and 240 g
- body weight of rat in g in particular day ([1]; day 11, individual rats): 213 g and 214 g and 222 g and 239 g
- body weight of rat in g in particular day ([1]; day 12, individual rats): 211 g and 213 g and 224 g and 241 g
- body weight of rat in g in particular day ([1]; day 13, individual rats): 214 g and 212 g and 225 g and 242 g
- body weight of rat in g in particular day ([1]; day 14, individual rats): 215 g and 211 g and 225 g and 239 g
- body weight of rat in g in particular day ([1]; day 15, individual rats): 217 g and 211 g and 224 g and 242 g
- body weight of rat in g in particular day ([1]; day 16, individual rats): 217 g and 213 g and 225 g and 242 g
- body weight of rat in g in particular day ([1]; day 17, individual rats): 218 g and 212 g and 226 g and 243 g
- body weight of rat in g in particular day ([1]; day 18, individual rats): 218 g and 214 g and 227 g and 243 g
- body weight of rat in g in particular day ([1]; day 19, individual rats): 219 g and 214 g and 227 g and 244 g
- body weight of rat in g in particular day ([1]; day 20, individual rats): 220 g and 215 g and 228 g and 244 g
- body weight of rat in g in particular day ([1]; day 21, individual rats): 220 g and 216 g and 228 g and 245 g
- body weight of rat in g in particular day ([1]; day 22, individual rats): 221 g and 216 g and 229 g and 245 g
- body weight of rat in g in particular day ([1]; day 23, individual rats): 221 g and 217 g and 229 g and 246 g
- body weight of rat in g in particular day ([1]; day 24, individual rats): 220 g and 217 g and 230 g and 246 g
- body weight of rat in g in particular day ([1]; day 25, individual rats): 221 g and 218 g and 230 g and 247 g
- temperature after administration ([2]; hour 1): 37.56 ⚬C and 36.75 ⚬C and 37.32 ⚬C and 36.19 ⚬C and 36.67 ⚬C and 36.9 ⚬C
- temperature after administration ([2]; hour 2): 36.89 ⚬C and 36.98 ⚬C and 36.3 ⚬C (2×) and 37.12 ⚬C and 35.67 ⚬C
- temperature after administration ([2]; hour 3): 36.21 ⚬C and 36.64 ⚬C and 36.08 ⚬C and 35.74 ⚬C and 36.23 ⚬C and 35.01 ⚬C
- temperature after administration ([2]; hour 4): 36.66 ⚬C and 36.98 ⚬C and 36.64 ⚬C and 35.41 ⚬C and 35.89 ⚬C and 36.48 ⚬C
- temperature after administration ([2]; hour 5): 37 ⚬C and 36.98 ⚬C and 36.95 ⚬C and 36.08 ⚬C and 36.45 ⚬C and 36.9 ⚬C
- temperature after administration ([2]; hour 6): 37.34 ⚬C and 36.75 ⚬C and 36.87 ⚬C and 36.44 ⚬C and 36.59 ⚬C and 36.9 ⚬C
- temperature after administration ([2]; hour 7): 36.77 ⚬C and 36.64 ⚬C (2×) and 36.19 ⚬C and 36.78 ⚬C and 36.45 ⚬C
- temperature after administration ([2]; hour 8): 37 ⚬C and 36.53 ⚬C and 36.75 ⚬C and 36.42 ⚬C and 36.67 ⚬C and 36.78 ⚬C
- temperature after administration ([2]; hour 9): 37.34 ⚬C and 36.42 ⚬C and 36.64 ⚬C and 36.98 ⚬C and 36.78 ⚬C and 36.67 ⚬C
- temperature after administration ([2]; hour 10): 37.34 ⚬C and 36.5 ⚬C and 36.87 ⚬C and 36.53 ⚬C and 36.67 ⚬C and 37.01 ⚬C
- temperature after administration ([2]; hour 11): 37 ⚬C and 36.64 ⚬C and 36.08 ⚬C and 37.09 ⚬C and 36.67 ⚬C and 36.56 ⚬C
- temperature after administration ([2]; hour 12): 37 ⚬C and 36.53 ⚬C (2×) and 36.87 ⚬C and 36.56 ⚬C and 37.35 ⚬C
- temperature after administration ([2]; hour 13): 37.22 ⚬C and 37.09 ⚬C and 36.75 ⚬C and 36.64 ⚬C and 36.56 ⚬C and 36.67 ⚬C
- temperature after administration ([2]; hour 14): 37.34 ⚬C and 36.42 ⚬C (3×) and 36.78 ⚬C and 37.12 ⚬C
- temperature after administration ([2]; hour 15): 37.34 ⚬C and 36.53 ⚬C (2×) and 36.08 ⚬C and 36.56 ⚬C and 36.45 ⚬C
- temperature after administration ([2]; hour 16): 37.34 ⚬C and 37.09 ⚬C and 36.64 ⚬C and 35.97 ⚬C and 36.34 ⚬C and 36.56 ⚬C
- temperature after administration ([2]; hour 17): 37 ⚬C and 37.09 ⚬C and 36.53 ⚬C and 36.67 ⚬C and 36.45 ⚬C and 37.23 ⚬C
- temperature after administration ([2]; hour 18): 37.45 ⚬C and 36.53 ⚬C and 36.3 ⚬C and 37.21 ⚬C and 36.56 ⚬C and 36.34 ⚬C
- temperature after administration ([2]; hour 19): 36.6 ⚬C and 36.75 ⚬C and 36.53 ⚬C and 36.3 ⚬C and 36.67 ⚬C (2×)
- temperature after administration ([2]; hour 20): 37.22 ⚬C and 37.32 ⚬C and 36.19 ⚬C and 35.97 ⚬C and 36.56 ⚬C and 36.23 ⚬C
- temperature after administration ([2]; hour 21): 37.45 ⚬C and 36.08 ⚬C (2×) and 36.19 ⚬C and 36.78 ⚬C and 36.12 ⚬C
- temperature after administration ([2]; hour 22): 36.77 ⚬C and 36.3 ⚬C and 35.86 ⚬C and 36.08 ⚬C and 36.45 ⚬C and 36.12 ⚬C
- temperature after administration ([2]; hour 23): 36.89 ⚬C and 36.3 ⚬C and 36.19 ⚬C and 36.53 ⚬C and 36.34 ⚬C and 36.23 ⚬C
- temperature after administration ([2]; hour 24): 36.66 ⚬C and 36.64 ⚬C and 36.3 ⚬C and 36.19 ⚬C and 36.78 ⚬C and 35.89 ⚬C
- effect on core temperature (in words) ([2]; obese rats, 5 mg/kg b.w. ip, vs obese control): No significant effects on core temperature

Structure (SMILES): N=C(N)N/N=C/c1c(Cl)cccc1Cl [Guanabenz]
- Core temperature [3]: ↓ [17]
